In ChEMBL document CHEMBL1146695 (Bioorg Med Chem Lett, 2004):

Legend:
Carbonic anhydrase 9 = Carbonic anhydrase 9 (Homo sapiens, UniProt Q16790)
Description: Compound was evaluated for inhibition against human carbonic anhydrase IX

Carbonic anhydrase 2 = Carbonic anhydrase 2 (Homo sapiens, UniProt P00918)
Description: Compound was evaluated for inhibition against human carbonic anhydrase II

Carbonic anhydrase 4 = target: T1, Carbonic anhydrase 4 (Bos taurus, UniProt Q95323)
T1 sequence (Q95323 whole entry): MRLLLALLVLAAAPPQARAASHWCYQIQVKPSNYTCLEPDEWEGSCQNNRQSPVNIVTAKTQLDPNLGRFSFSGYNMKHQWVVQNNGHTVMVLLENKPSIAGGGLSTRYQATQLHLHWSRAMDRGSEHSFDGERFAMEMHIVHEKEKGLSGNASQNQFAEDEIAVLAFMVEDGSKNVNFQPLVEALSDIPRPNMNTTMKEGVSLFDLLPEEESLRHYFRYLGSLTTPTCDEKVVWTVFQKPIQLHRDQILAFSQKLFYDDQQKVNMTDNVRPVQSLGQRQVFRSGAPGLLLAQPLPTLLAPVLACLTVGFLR
Description: Compound was evaluated for inhibition against bovine carbonic anhydrase IV

Carbonic anhydrase 1 = Carbonic anhydrase 1 (Homo sapiens, UniProt P00915)
Chain of Carbonic anhydrase 1 (P00915 whole entry): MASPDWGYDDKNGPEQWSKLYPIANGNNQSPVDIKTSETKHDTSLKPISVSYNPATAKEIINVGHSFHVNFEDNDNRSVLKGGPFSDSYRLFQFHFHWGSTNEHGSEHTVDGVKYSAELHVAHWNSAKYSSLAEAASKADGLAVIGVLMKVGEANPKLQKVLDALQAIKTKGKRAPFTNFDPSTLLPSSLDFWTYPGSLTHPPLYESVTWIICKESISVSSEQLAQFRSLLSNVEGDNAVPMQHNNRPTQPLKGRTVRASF
Description: Compound was evaluated for inhibition against human carbonic anhydrase I

Compound: NS(=O)(=O)c1ccc(S(=O)(=O)Nc2cccc3[nH]cc(Cl)c23)cc1
- Ki (Carbonic anhydrase 9): 24 nM
- Ki (Carbonic anhydrase 2): 15 nM
- Ki (Carbonic anhydrase 4): 65 nM
- Ki (Carbonic anhydrase 1): 31 nM
